# Data reported in publication PMC6695355, “Alanine Scanning Studies of the Antimicrobial Peptide Aurein 1.2” (Probiotics and Antimicrobial Proteins, 2018).
# Like-named read-outs stand apart in the source and are kept apart here. Where a SMILES comes first, the peptide text is derived from it.
# Key:
# E. coli ATCC 25922 = type: cell-based, Escherichia coli; settings: ATCC 25922, 18 h
# Experimental: (§1) The minimum inhibitory concentrations (MICs) of test compounds were assessed by broth microdilution method on 96-well plates, according to the guidelines of Clinical and Laboratory Standards Institute (CLSI). For this purpose, reference strains of bacteria: S. aureus ATCC 25923, E. faecalis PCM 2673, E. coli ATCC 25922, and P. aeruginosa ATCC 9027; and fungus: C. albicans ATCC 10231 were used (The Polish Collection of Microorganism, Polish Academy of Sciences, Wrocław, Poland). Bacteria at initial inoculums of 0.5 × 10^5 CFU/mL in Mueller Hinton Broth (MHB), and fungi at initial inoculums of 2 × 10^3 CFU/mL in RPMI-1640, were exposed to the compounds over the concentration range of 1–512 μg/mL. The polystyrene plates were incubated at 37 °C for 18 h with bacteria and for 24 h with C. albicans. The MIC was taken as the lowest concentration at which a noticeable growth of microorganisms was inhibited. Minimum biofilm eradication concentrations (MBECs) were determined using a previously described protocol. For this purpose, 96-well polystyrene flat-bottom plates and a resazurin (7-hydroxy-3H-phenoxazin-3-one 10-oxide) were used. In this assay, a specific feature of resazurin is utilized, which upon the contact with living cells is metabolized and reduced from the basic blue form to pink resorufin. Briefly, 24-h cultures of microorganisms were diluted 1,000-fold and 100 μL of that suspension was added into the test plates. After 24 h of incubation at 37 °C, the wells of the plates were rinsed three times with phosphate buffer saline (PBS) to remove non-adherent cells. Subsequently, 100 μL of test compounds in concentration range (diluted in appropriate media) were added to each well. After 24 h of incubation at 37 °C, 20 μL of the resazurin (4 mg/mL) was added. The MBEC was read after 1 h. Additionally, anti-adhesive properties of the compounds were also analyzed. The assay was conducted on 96-well polystyrene flat-bottom plates. The preparation of inoculums was followed by a 500-fold dilution of 24-h cultures of microorganisms. Briefly, to evaluate the effect of the peptides in preventing biofilm formation, 50 μL of compounds in concentration range, diluted in appropriate medium, were prepared. Subsequently, the 50 μL of the bacterial/fungal inoculums were added to reach the same microbial density as that in MBEC assay. After 24 h of incubation at 37 °C, the wells were rinsed three times with PBS and the fresh media with resazurin (0.6 mg/mL) were added. Then, after 1 h of incubation, the minimum biofilm inhibitory concentrations (MBIC) were read. MBECs as well as MBICs were determined as the lowest concentration at which the reduction of resazurin was lower or equal (10% ± 0.5%) as compared to positive (100%) and negative (0%) controls. All experiments were performed in triplicate.
# [1] = test system: E. coli ATCC 25922 biofilm formation; type: cell-based, Escherichia coli; settings: ATCC 25922, 24 h
# Experimental: as §1
# [2] = test system: E. coli ATCC 25922 biofilm; type: cell-based, Escherichia coli; settings: ATCC 25922, 24 h
# Experimental: as §1
# [3] = test system: E. faecalis PCM 2673 biofilm formation; type: cell-based, Enterococcus faecalis; settings: 24 h
# Experimental: as §1
# E. faecalis PCM 2673 = type: cell-based, Enterococcus faecalis; settings: PCM 2673, 18 h
# Experimental: as §1
# [4] = test system: E. faecalis PCM 2673 biofilm; type: cell-based, Enterococcus faecalis; settings: 24 h
# Experimental: as §1
# in vitro = in vitro ADME; settings: bovine, serum
# Experimental: To assess serum stability, the peptides (0.5 mg) were dissolved in 4 mL of 25% (v/v) fetal bovine serum (FBS) in PBS and incubated at 37 °C. The aliquots of 100 μL of the test samples were transferred to 96-well polystyrene plates in triplicate for each time point. Samples were quenched at zero time (t0) and after 6 h of incubation at 37 °C by addition of 100 μL of ice-cold acetonitrile and stored at 4 °C for 10 min. Afterwards, the samples were centrifuged at 13,000×g for 20 min at 4 °C and diluted 1:1 with HPLC-grade water. All samples were analyzed using the Waters Alliance e2695 system with Waters Acquity QDa Detector (software–Empower®3). Analyses were conducted on an Agilent Zorbax SB-C18 RP-18 column (4.6 × 50 mm, 1.8-μm particle size, 80-Å pore size) using a linear 30–60% acetonitrile (B) gradient in deionized water (A) over 6 min at 25.0 ± 0.1 °C, at a flow rate of 0.5 mL/min and MS working in selected ion recording (SIR) mode (A—0.1% aqueous formic acid (FA) and B—0.1% FA in acetonitrile). The percentage of peptide remaining intact was calculated from peak areas of samples at t0 and after 6 h of incubation in serum (the % of remaining peptide = peak area after 6 h/peak area at t0). The mass-to-charge ratios selected for SIR mode were based on values obtained from full spectrum analysis of each peptide and are presented in Table 1.
# [5] = test system: P. aeruginosa ATCC 9027 biofilm formation; type: cell-based, Pseudomonas aeruginosa; settings: ATCC 9027, 24 h
# Experimental: as §1
# P. aeruginosa ATCC 9027 = type: cell-based, Pseudomonas aeruginosa; settings: ATCC 9027, 18 h
# Experimental: as §1
# [6] = test system: P. aeruginosa ATCC 9027 biofilm; type: cell-based, Pseudomonas aeruginosa; settings: ATCC 9027, 24 h
# Experimental: as §1
# [7] = test system: C. albicans ATCC 10231 biofilm formation; type: cell-based, Candida albicans; settings: ATCC 10231, 24 h
# Experimental: as §1
# C. albicans ATCC 10231 = type: cell-based, Candida albicans; settings: ATCC 10231, 24 h
# Experimental: as §1
# [8] = test system: C. albicans ATCC 10231 biofilm; type: cell-based, Candida albicans; settings: ATCC 10231, 24 h
# Experimental: as §1
# [9] = test system: human red blood cells (RBCs); test: Hemolysis assay; type: cell-based
# Experimental: The hemolytic activity of the peptides was determined using fresh human red blood cells (RBCs) collected from a healthy human donor according to the procedure described in the literature. Fresh RBCs with EDTA as anticoagulant were rinsed three times with a PBS by centrifugation at 800×g for 10 min and resuspension in PBS. Serial dilution of the peptides in PBS (1–256 μg/mL) on 96-well polystyrene plates was prepared and the stock solution of RBCs was added up to a final volume of 100 μL with a 4% concentration of erythrocytes (v/v). The control wells for 0 and 100% hemolysis contained of RBCs suspended in PBS and 1% of Triton-X 100, respectively. Subsequently, the plates were incubated for 1 h at 37 °C and then centrifuged at 800×g for 10 min at 4 °C (Sorvall ST 16R Centrifuge, Thermo Scientific). After centrifugation, the supernatant was carefully […] to new microtiter plates and the release of hemoglobin was measured at 540 nm (Multiskan™ GO Microplate Spectrophotometer, Thermo Scientific). All experiments were conducted in triplicate.
# [10] = test system: S. aureus ATCC 25923 biofilm; type: cell-based, Staphylococcus aureus; settings: ATCC 25923, 24 h
# Experimental: as §1
# [11] = test system: S. aureus ATCC 25923 biofilm formation; type: cell-based, Staphylococcus aureus; settings: ATCC 25923, 24 h
# Experimental: as §1
# S. aureus ATCC 25923 = type: cell-based, Staphylococcus aureus; settings: ATCC 25923, 18 h
# Experimental: as §1
Compound,"MIC, E. coli ATCC 25922 (E. coli ATCC 25922) [µg/mL]","MBIC, E. coli ATCC 25922 [1] [µg/mL]","MBEC, E. coli ATCC 25922 [2] [µg/mL]","MBIC, E. faecalis PCM 2673 [3] [µg/mL]","MIC, E. faecalis PCM 2673 (E. faecalis PCM 2673) [µg/mL]","MBEC, E. faecalis PCM 2673 [4] [µg/mL]","remaining at 6 h, 0.125 mg/mL (in vitro) [%]","MBIC, P. aeruginosa ATCC 9027 [5] [µg/mL]","MIC, P. aeruginosa ATCC 9027 (P. aeruginosa ATCC 9027) [µg/mL]","MBEC, P. aeruginosa ATCC 9027 [6] [µg/mL]","MBIC, C. albicans ATCC 10231 [7] [µg/mL]","MIC, C. albicans ATCC 10231 (C. albicans ATCC 10231) [µg/mL]","MBEC, C. albicans ATCC 10231 [8] [µg/mL]","Percentage of hemolysis at 1 μg/mL ([9]; red cells of human, 1 h) [%]","Percentage of hemolysis at 2 μg/mL ([9]; red cells of human, 1 h) [%]","Percentage of hemolysis at 4 μg/mL ([9]; red cells of human, 1 h) [%]","Percentage of hemolysis at 8 μg/mL ([9]; red cells of human, 1 h) [%]","Percentage of hemolysis at 32 μg/mL ([9]; red cells of human, 1 h) [%]","Percentage of hemolysis at 64 μg/mL ([9]; red cells of human, 1 h) [%]","Percentage of hemolysis at 128 μg/mL ([9]; red cells of human, 1 h) [%]",also measured
CC[C@H](C)[C@H](NC(=O)[C@H](CCCCN)NC(=O)[C@H](CCCCN)NC(=O)[C@@H](NC(=O)[C@@H](NC(=O)[C@H](CC(=O)O)NC(=O)[C@H](Cc1ccccc1)NC(=O)[C@H](CC(C)C)NC(=O)CN)[C@@H](C)CC)[C@@H](C)CC)C(=O)N[C@@H](C)C(=O)N[C@@H](CCC(=O)O)C(=O)N[C@@H](CO)C(=O)N[C@@H](C)C(N)=O [Peptide F13A] (H-GLFDIIKKIAESA-NH2),128,>512,512,>512,128,> 512,54,>512,> 512,> 512,8,512,> 512,0.3,0.6,0.5,0.4,0.0,0.0,0.0,"Percentage of hemolysis at 16 μg/mL [9]: 0,0%; Hemolysis over the whole concentration range ([9]; 1–256 μg/mL, 4% human RBCs in PBS, 1 h, 37 °C): did not cause the lysis of RBCs; Percentage of hemolysis at 256 μg/mL ([9]; red cells of human, 1 h): 0.0%; MBEC, S. aureus ATCC 25923 [10]: 128 µg/mL; MBIC, S. aureus ATCC 25923 [11]: >512 µg/mL; MIC, S. aureus ATCC 25923 (S. aureus ATCC 25923): > 512 µg/mL"
CC[C@H](C)[C@H](NC(=O)[C@H](CCCCN)NC(=O)[C@H](CCCCN)NC(=O)[C@@H](NC(=O)[C@@H](NC(=O)[C@H](CC(=O)O)NC(=O)[C@H](Cc1ccccc1)NC(=O)[C@H](CC(C)C)NC(=O)[C@H](C)N)[C@@H](C)CC)[C@@H](C)CC)C(=O)N[C@@H](C)C(=O)N[C@@H](CCC(=O)O)C(=O)N[C@@H](CO)C(=O)N[C@@H](Cc1ccccc1)C(N)=O [Peptide G1A] (H-ALFDIIKKIAESF-NH2),128,128,256,256,128,> 512,16,256,512,512,4,128,> 512,0.0,0.0,0.0,0.0,0.0,0.0,0.3,"Percentage of hemolysis at 16 μg/mL ([9]; red cells of human, 1 h, 16): 0.0%; Percentage of hemolysis at 256 μg/mL ([9]; red cells of human, 1 h): 4.2%; MBEC, S. aureus ATCC 25923 [10]: 512 µg/mL; MBIC, S. aureus ATCC 25923 [11]: 512 µg/mL; MIC, S. aureus ATCC 25923 (S. aureus ATCC 25923): 512 µg/mL"
